Test system: Glucose-6-Phosphatase activity
Test: Glycogenolysis (glucose release after glucagon)
Format: cell-based, human
Details: 3D spheroids, 10 nmol/L glucagon, 3 h
Experimental: Glycogen Glucose metabolism. iHeps in 2D and 3D culture were investigated to assess the glycogen storage and glucose homeostasis regulation. Briefly, at specific time points along the 2D and 3D cultures, cells were treated for 3 h with a homemade low-glucose medium with or without 10 nmol/L glucagon (Sigma-Aldrich) to induce glucose release from the glycogen storage. Media samples were then collected and glucose concentration was determined using the High Sensitivity Glucose Assay Kit (Sigma). Periodic acid-Schiff (PAS) staining was then carried out on 2D and 8 μm cryosections of the very same samples. Specimens were fixed for 10 minutes at room temperature with 4% formol then treated with 1% periodic acid solution (Sigma-Aldrich) for 10 minutes. After washing, slides were immersed in Schiff's reagent (Fisher Scientific) for 30 minutes at RT. Before counterstaining with Mayer's Hematoxylin (Sigma), samples were washed carefully with Scott's tap water.
To investigate further, 3D specimens (iHeps and PHHs) were incubated for 4 h with 25 mM D-Glucose and 100 nM insulin to mimic hyperglycemia. Glycogen synthesis and storage were then determined using the Periodic Acid-Schiff (PAS) Staining Kit (Sigma-Aldrich) as described above. […] The media were then collected, and glucose levels determined using the High Sensitivity Glucose Assay Kit (Sigma).

Substance: glucagon
- glycogenolysis, times higher than basal release (w/o glucagon): 3 times

Source: patent publication US20240271099A1, “METHOD FOR GENERATING HIGHLY FUNCTIONAL HEPATOCYTES BY DIFFERENTIATING HEPATOBLASTS” (INSTITUT NATIONAL DE LA SANTÉ ET DE LA RECHERCHE MÉDICALE, priority 2021, published 2024)
